# Laboratory results as given in publication PMC9775191, “A Subset Screen of the Compounds Australia Scaffold Library Identifies 7-Acylaminodibenzoxazepinones as Potent and Selective Hits for Anti-Giardia Drug Discovery” (Biomedicines, 2022).
# System: G. duodenalis BRIS/91/HEPU/1279
# Assay: Primary Giardia screen at 10 µM (live-cell imaging, automated counting)
# Format: cell-based, Giardia duodenalis
# Details: for % Inhibition n=1 48h / % Inhibition n=1 24h: first singlicate assay; for % Inhibition n=2 24h / % Inhibition n=2 48h: re-assessment
# In short: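 Percent growth versus 0.2% DMSO vehicle, background-corrected with media-only wells, is reported at 24 and 48 h from automated live-cell counts. Testing used 10 μM final in a 3% O2 atmosphere, with plate quality checked by Z' factor.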
structure (smiles),measurement,value
CC(=O)N1CCc2cc(C(=O)CN3CC(C)CC(C)C3)ccc21 (centres unmarked) [SN00785210],% Inhibition n=1 48h,19.3%
CCn1c(C)c(C2=CCN(S(=O)(=O)c3ccc(F)cc3)CC2)c2ccccc21 [SN00785221],% Inhibition n=1 48h,17.2%
Cc1ccc(-c2[nH]c(-c3ccccc3)nc2S(=O)(=O)CC(=O)Nc2ccccc2)cc1 [SN00785272],% Inhibition n=1 48h,11.7%
COc1ccc(-c2nc(S(=O)(=O)CC(=O)Nc3ccc(F)cc3)c(-c3ccc(OC)cc3)[nH]2)cc1 [SN00785276],% Inhibition n=1 48h,12.5%
CCc1noc2nc(C)nc(N3CCCC(C(=O)O)C3)c12 (centres unmarked) [SN00785300],% Inhibition n=1 48h,0.0%
COc1ccc(S(=O)(=O)n2nc(-c3cc(OC)c(OC)c(OC)c3)cc2N)cc1OC [SN00785320],% Inhibition n=1 48h,21.7%
COCCNC(=O)N1Cc2c(C)nn(-c3ccccc3)c2-n2cccc2C1c1cccc(C)c1 (centres unmarked) [SN00785355],% Inhibition n=1 48h,10.0%
CCN1c2cc(C)ccc2-n2cccc2C12CCN(S(=O)(=O)c1ccc(C)cc1)CC2 [SN00785371],% Inhibition n=1 48h,10.4%
CC(C)CCNC(=O)C1(C)CCc2ccccc2C(=O)N1Cc1ccccc1F (centres unmarked) [SN00785390],% Inhibition n=1 48h,14.6%
Cc1ccc(C(=O)N2CCN(c3nc4ccccc4n4cccc34)CC2)cc1 [SN00785395],% Inhibition n=1 48h,25.5%
Cc1cccc(C)c1NC(=O)Cn1c(=O)n(CCc2c[nH]c3ccccc23)c(=O)c2cccnc21 [SN00785456],% Inhibition n=1 48h,0.5%
COc1ccc(S(=O)(=O)N2CC=C(C(=O)Nc3ccc(Cl)cc3)CC2)cc1 [SN00785473],% Inhibition n=1 48h,0.0%
COc1ccc(S(=O)(=O)N2CC=C(C(=O)NCc3ccc(C)cc3)CC2)cc1 [SN00785474],% Inhibition n=1 48h,23.4%
CCC1CCCCN1C(=O)Cn1c(C(=O)OC)cc2occc21 (centres unmarked) [SN00785479],% Inhibition n=1 48h,8.8%
Cn1c(C(=O)N2CCCC(C(=O)NCCc3ccccc3)C2)cc2sccc21 (centres unmarked) [SN00785483],% Inhibition n=1 48h,4.8%
CCOC(=O)c1cc2n(n1)CC(C)(C(=O)NCCC(C)C)N(CCc1cccs1)C2=O (centres unmarked) [SN00785530],% Inhibition n=1 48h,6.6%
CN(CCCN)C(=O)c1ccc2c(=O)n3c(nc2c1)CCCCC3 [SN00785585],% Inhibition n=1 48h,25.4%
CC1CCc2nn(CC(=O)NC(C)c3ccccc3)cc2C1 (centres unmarked) [SN00785614],% Inhibition n=1 48h,0.0%
Cc1cc(=O)n2nc(N(C)CC(=O)NC3CCCc4ccccc43)sc2n1 (centres unmarked) [SN00785631],% Inhibition n=1 48h,35.0%
CCCc1cc(=O)n2nc(N(C)CC(=O)NCCCN3CCCC3=O)sc2n1 [SN00785642],% Inhibition n=1 48h,4.1%
CCCCCCNC(=O)Cc1c(C)nc2c(-c3ccccc3)c(C)nn2c1C [SN00785656],% Inhibition n=1 48h,17.0%
CCC(=O)N1N=C2C3CCN(CC3)[C@@H]2[C@@H]1c1cccc(OC)c1OC [SN00785687],% Inhibition n=1 48h,13.8%
COc1ccc(C(=O)c2c(N)c(-c3nc(-c4cc(OC)ccc4OC)cs3)c3ccccn23)cc1 [SN00785721],% Inhibition n=1 48h,0.0%
O=S(=O)(c1ccc(Br)cc1)c1nc(-c2ccccc2)oc1N1CCOCC1 [SN00785745],% Inhibition n=1 48h,4.0%
Cc1ccc2nc(C3=C(N)N(C4CCCCCC4)CC3=O)[nH]c2c1 [SN00785773],% Inhibition n=1 48h,29.0%
Cc1ccc([N+](=O)[O-])cc1N1CC(=O)C(c2nc3ccccc3[nH]2)=C1N [SN00785776],% Inhibition n=1 48h,21.1%
CN(C)CCn1c(=O)c2[nH]cnc2n(C)c1=O [SN00785782],% Inhibition n=1 48h,13.4%
O=C1c2ccccc2C(=O)N1CC(=O)n1nc(-c2cccnc2)nc1NCc1cccs1 [SN00785806],% Inhibition n=1 48h,3.6%
Cc1cc(N2CCN(c3ccccc3F)CC2)n2cnnc2n1 [SN00785845],% Inhibition n=1 48h,30.4%
CN(Cc1ccccc1)c1c2c(nc3nncn13)CCC2 [SN00785855],% Inhibition n=1 48h,14.3%
Cc1ccc2c(c1)N=C(c1ccc(C)o1)N=C(c1cccs1)N2 [SN00785905],Average % Inhibition 24h,15.2%
same,% Inhibition n=1 24h,22.4%
same,% Inhibition n=2 24h,8.0%
same,Average % Inhibition 48h,54.6%
same,% Inhibition n=1 48h,69.6%
same,% Inhibition n=2 48h,39.6%
Fc1ccc(C2=NC(c3cccs3)=Nc3cc(Cl)ccc3N2)cc1 [SN00785914],% Inhibition n=1 48h,0.0%
O=C1O[C@@H]2C[C@H]3C[C@@H]2[C@@H]1[C@H]3C(=O)Nc1ccc(C(=O)N2CC=C(c3ccccc3)CC2)cc1 [SN00785926],% Inhibition n=1 48h,11.8%
CN1CC(c2nc3ccccc3[nH]2)CC1=O (centres unmarked) [SN00785951],% Inhibition n=1 48h,0.0%
CCCCS(=O)(=O)N1CCC(c2nnnn2-c2ccc(C)cc2)CC1 [SN00785962],% Inhibition n=1 48h,0.0%
Cc1ccccc1NC(=O)c1ccc2c(c1)CCN2S(C)(=O)=O [SN00785973],% Inhibition n=1 48h,31.2%
Cc1ccc(CNC(=O)c2ccc3c(c2)CCN3S(=O)(=O)c2ccc(C)cc2)cc1 [SN00785985],% Inhibition n=1 48h,38.5%
Cc1cccc(NC(=O)NC2CCN(c3nc(C)cc(C)n3)CC2)c1 [SN00786006],% Inhibition n=1 48h,33.8%
CCOc1cc(C2OCCn3c(-c4ccccc4)c4c(=O)n(C)c(=O)n(C)c4c32)ccc1O (centres unmarked) [SN00786012],% Inhibition n=1 48h,8.5%
CCCOc1ccc(C2OCCn3c(-c4ccc(OC)cc4)c4c(=O)n(C)c(=O)n(C)c4c32)cc1 (centres unmarked) [SN00786016],% Inhibition n=1 48h,14.8%
CC(=O)c1cc2c(cc1NC(=O)c1cn(-c3ccc(F)cc3)nn1)OCO2 [SN00786071],% Inhibition n=1 48h,7.4%
Cc1ccccc1NC(=O)c1nc(S(C)(=O)=O)ncc1N(Cc1ccco1)Cc1sccc1C [SN00786086],% Inhibition n=1 48h,11.7%
CCS(=O)(=O)c1ncc(N(Cc2ccco2)Cc2ccccc2F)c(C(=O)Nc2ccccc2)n1 [SN00786098],% Inhibition n=1 48h,17.4%
CCn1c(Cn2cccn2)nc2cc(NC(C)=O)ccc21 [SN00786137],% Inhibition n=1 48h,11.6%
CCCNC(=O)c1sc(-n2nc(C)c(Cl)c2C)nc1C [SN00786172],Average % Inhibition 24h,7.3%
same,% Inhibition n=1 24h,14.5%
same,% Inhibition n=2 24h,0.0%
same,Average % Inhibition 48h,27.0%
same,% Inhibition n=1 48h,52.5%
same,% Inhibition n=2 48h,1.5%
Cc1nc(-n2nc(C)c(Cc3ccccc3Cl)c2C)sc1C(=O)NC(C)C [SN00786185],% Inhibition n=1 48h,0.0%
Cc1ccc(CNc2nc(-c3ccco3)nn2C(=O)C(C)C)cc1 [SN00786221],% Inhibition n=1 48h,11.1%
Cc1ccc(CNc2nc(-c3ccco3)nn2C(=O)c2cccc([N+](=O)[O-])c2)cc1 [SN00786222],% Inhibition n=1 48h,6.6%
CN(C)C1(CNC(=O)COc2ccc(Br)cc2)CCCCC1 [SN00786247],% Inhibition n=1 48h,5.1%
Cc1ccc(OCC(=O)NCC2(N3CCN(C)CC3)CCCCC2)cc1 [SN00786260],% Inhibition n=1 48h,9.4%
CC1CCCCN1S(=O)(=O)c1ccc(NC(=O)c2cc(-c3cccs3)on2)cc1 (centres unmarked) [SN00786280],% Inhibition n=1 48h,10.1%
Cc1ccc(NC(=O)c2cc(-c3ccc4c(c3)OCCO4)on2)cc1C [SN00786283],% Inhibition n=1 48h,2.9%
O=C(NCc1ccccc1)c1nc[nH]c1C(=O)NCc1cccc(C(F)(F)F)c1 [SN00786288],% Inhibition n=1 48h,20.4%
COCCNC(=O)c1nc[nH]c1C(=O)NC(C)C [SN00786292],% Inhibition n=1 48h,8.3%
CCCCNc1ncccc1-c1nc(-c2ccc(C)cc2)no1 [SN00786331],% Inhibition n=1 48h,25.3%
Cc1nc(N2CCCCC2)cc(N2CCN(C(=O)c3cccc(F)c3)CC2)n1 [SN00786431],% Inhibition n=1 48h,7.0%
Cc1ccc(Nc2cc(N3CCN(S(=O)(=O)c4ccc(C)c(C)c4)CC3)nc(C)n2)cc1 [SN00786472],% Inhibition n=1 48h,20.7%
Cc1nc(N(C)C)cc(N2CCN(C(=O)Nc3cccc(C(F)(F)F)c3)CC2)n1 [SN00786482],Average % Inhibition 24h,10.6%
same,% Inhibition n=1 24h,15.1%
same,% Inhibition n=2 24h,6.1%
same,Average % Inhibition 48h,29.2%
same,% Inhibition n=1 48h,55.4%
same,% Inhibition n=2 48h,2.9%
COc1cc(NC(=O)N2CCN(c3cc(N(C)C)nc(C)n3)CC2)cc(OC)c1 [SN00786504],Average % Inhibition 24h,4.9%
same,% Inhibition n=1 24h,9.8%
same,% Inhibition n=2 24h,0.0%
same,Average % Inhibition 48h,27.5%
same,% Inhibition n=1 48h,55.1%
same,% Inhibition n=2 48h,0.0%
CCOC(=O)Cn1c(=O)n(-c2ccccc2)c(=O)c2cc3c(nc21)CC(C)(C)OC3 [SN00786524],% Inhibition n=1 48h,18.7%
CC1(C)Cc2nc3[nH]c(=O)n(Cc4ccco4)c(=O)c3cc2CO1 [SN00786536],% Inhibition n=1 48h,7.3%
O=C(Nc1ccc(N2CCn3c(nc4cc(Cl)ccc43)C2)cc1)NC1CCCCC1 [SN00786562],% Inhibition n=1 48h,10.0%
O=C(Cc1scnc1-c1cccs1)N1CCN(c2ccccn2)CC1 [SN00786601],% Inhibition n=1 48h,0.0%
O=S1(=O)C[C@H](NCc2ccccn2)[C@@H](S(=O)(=O)c2ccccc2)C1 [SN00786609],% Inhibition n=1 48h,0.0%
Cc1csc(-n2nc(C)c(CC(=O)N3CCN(c4ccccc4)CC3)c2O)n1 [SN00786646],% Inhibition n=1 48h,34.3%
Cc1nn(-c2nc(-c3ccccc3)cs2)c(O)c1CC(=O)N1CCN(c2ccc(F)cc2)CC1 [SN00786652],% Inhibition n=1 48h,0.0%
COc1ccc(NC(=O)c2cc(C(F)(F)F)n(C)n2)cc1 [SN00786766],% Inhibition n=1 48h,0.0%
Cc1ccc(C2=CC(c3ccccc3)n3nnnc3N2CC(=O)N2CCN(c3ccccc3)CC2)cc1 (centres unmarked) [SN00786799],% Inhibition n=1 48h,34.8%
NC(=O)C1=C(Nc2ccccc2)c2ccccc2S1(=O)=O [SN00786825],Average % Inhibition 24h,12.8%
same,% Inhibition n=1 24h,25.7%
same,% Inhibition n=2 24h,0.0%
same,Average % Inhibition 48h,48.5%
same,% Inhibition n=1 48h,65.7%
same,% Inhibition n=2 48h,31.3%
Cc1ccc2oc(N3CCN(C(=O)C(C)c4ccccc4)CC3)nc2n1 (centres unmarked) [SN00786842],% Inhibition n=1 48h,24.1%
Cc1cccc(NC(=O)N2CCN(c3cc(C)nc(N4CCCC4)n3)CC2)c1 [SN00786874],Average % Inhibition 24h,3.5%
same,% Inhibition n=1 24h,7.1%
same,% Inhibition n=2 24h,0.0%
same,Average % Inhibition 48h,39.9%
same,% Inhibition n=1 48h,49.3%
same,% Inhibition n=2 48h,30.5%
